Patent US20220193270A1, “METHOD FOR ENHANCING TUMOR GROWTH” (MINERVA BIOTECHNOLOGIES CORPORATION, priority 2013, published 2022)

Key:
[1] = test system: MUC1-positive T47D breast cancer cells; assay: RT-PCR of cancer stem cell markers and chromatin rearrangement factors in T47D cells cultured in serum-free minimal media with agent; type: cell-based, human
Protocol: (§1) Example 3: Agents that are able to maintain stem cells in the naïve state transform cancer cells into cancer stem cells wherein only a small number of cells are required for engraftment. Cancer cells were cultured according to standard practice. In the controls, the cancer cells were cultured in their normal media: RPMI for T47D breast cancer cells, DU145 and PC3 prostate cancer cells. However, the test agents, recombinant proteins human NME1 dimers, bacterial HSP593 NME1 dimers, human NME7-AB and 2i, were added to a serum-free minimal media to eliminate potential interference from the many growth factors and cytokines in serum.
Serum-free Minimal Media 500 mL includes the following components: 394 mL DMEM/F12, GlutaMAX; 100 mL Knockout™ Serum Replacement; 5.0 mL 100×MEM Non-essential Amino Acid Solution; 0.9 mL P-mercaptoethanol, 55 mM stock.
(§2) To this serum-free minimal media, rhNME1 (aka NM23) was added to a final concentration of 8 nM, or bacterial HSP593 recombinant NME1 was added to a final concentration of 8 nM, or rhNME7-AB was added to a final concentration of 4 nM, or 2i inhibitors, PD0325901 and CHIR99021, which inhibit the MAP kinase pathway and GSK3, respectively, were added to a final concentration of 3 μM and 1 μM.
When a rho kinase inhibitor, “Ri” or “ROCi”, was added it was Y27632 from Stemgent (Cambridge, Mass.), added immediately before use to a final concentration of 10 uM.
Example 3a: Breast cancer T47D cells were cultured either in the traditional RPMI growth media or in a minimal stem cell media to which was added either human NME1 dimers, also known as NM23-H1, bacterial HSP593 NME1 dimers, human NME7-AB, or kinase inhibitors known as ‘2i’. What these agents have in common is that they are each able to promote the growth of stem cells in the naive state or are able to revert primed state stem cells to the less mature naive state. We observed that some of the T47D cancer cells cultured in any of these agents became non-adherent. These ‘floaters’ were also morphologically different. The addition of a rho kinase inhibitor, called ‘Ri’ or ‘ROCP here caused most of the cells to remain attached to the surface. […] When a rho kinase inhibitor is added, all the cells remain attached but the RT-PCR measurements indicate that the resultant measure is of a mixture of the cells that were transformed and those that were not or were not yet.
Example 3c: In this example, the effect of ‘2i’ inhibitors on cancer cells was tested. Recall that 2i is the name given to 2 small molecules, […] that inhibit the MAP kinase pathway and GSK3 respectively. […] In this experiment, we cultured MUCl-positive T47D breast cancer cells in minimal media to which was added either 2i or NME7-AB.

[2] = test system: human fibroblasts; assay: RT-PCR of stem/cancer markers and chromatin rearrangement factors in fibroblasts cultured with NME proteins; type: cell-based; details: after 15-20 days in culture
Protocol: Agents that are able to maintain stem cells in the naive state are also able to transform somatic cells to a cancer or stem-like state. Human NME1 dimer or human NME7 are able to make somatic cells revert to a less mature state, expressing stem and cancer cell markers. Bacterial NME from HSP 593 was tested alongside the human homologs to determine if it could mimic their function by being able to revert somatic cells to a cancer-like state. Human fibroblasts were cultured in a serum-free minimal base media with either HSP 593, human NME1 dimers or human NME7-AB as the only growth factor or cytokine. […] Recalling that stem cells and metastatic cancer cells can grow anchorage-independently, we repeated the experiments but this time a rho kinase inhibitor was added to one set of cells to make the cells adhere to the surface. […] Photos of the experiment show the dramatic change in morphology as the fibroblasts revert when cultured in human or bacterial NME, FIGS. 52-59. The relative order of efficiency of reverting somatic cells to a less mature state was NME7>NME1 dimers >NME1 bacterial. […] However, Bacterial NME from HSP 593 apparently up-regulates expression of human NME7 and NME1.
Example 3d: In this example, fibroblast cells were cultured in the presence of recombinant human NME1/NM23 dimers, bacterial HSP593 NME1 dimers or NME7-AB. The fibroblasts were cultured in their normal media as a control, which is for 500 mL, 445 mL DMEM high glucose base media, 5 mL GlutaMAX and 50 mL of fetal bovine serum (FBS). After 15-20 days in culture with either NME1/NM23 dimers, bacterial HSP593 NME1 dimers or NME7-AB, the morphology of the cells completely changed so that they no longer were recognizable as fibroblasts. […] Here, ‘minus ROCi’ refers to cells that became non-adherent and floated off the surface.

[3] = test system: PC3 MUC1-negative prostate cancer cells; assay: RT-PCR of stem cell markers in PC3 cells cultured with agent; type: cell-based, human
Protocol: as §1, §2
PC3 MUCl-negative prostate cancer cells were also tested for their ability to transform into cancer stem cells when cultured in agents that are able to maintain stem cells in the naïve state. PC3 cells were cultured as described above with either human NME1 dimers, bacterial NME1 dimers or NME7-AB. […] Thus, the RT-PCR measurements of the cancer stem cell markers may be lower because measurements will be the average of transformed cells and non-transformed cells.

[4] = test system: Human HES-3 embryonic stem cells; assay: Human embryonic stem cell culture with NME protein as only growth factor; type: cell-based; details: serum-free minimal base media, agent as the only growth factor or cytokine
From the text: Factors that are able to maintain stem cells in the naive state are also able to transform cells to a cancer-like or stem-like state and are also able to transform cancer cells to a cancer stem cell state or a more metastatic state. Herein, we have shown several examples of bacterial NME1 being able to function like human NME1 dimers, which are also able to function like NME7 or NME7-AB. However, the primary example that these factors function in a very similar way is their ability to promote the growth of stem cells, inhibit differentiation and maintain them in the naive state. […] Human HES-3 embryonic stem cells were cultured in a serum-free minimal base media with either HSP 593, human NME1 or NME7-dimers or human NME7-AB as the only growth factor or cytokine. […] Several examples have been presented here that indicate that contacting cells with an agent or agents that are able to revert stem cells from the primed state to the less mature naive state are also able to revert a wide variety of cell types to a less mature state: somatic cells to stem or progenitor cells or cancer cells to more metastatic state also called cancer stem cell state. Therefore, the invention is not meant to be limited to a specific cell type or a specific cancer cell type.

[5] = test system: DU145 MUC1-positive prostate cancer cells; assay: RT-PCR of cancer stem cell markers in DU145 cells cultured with agent; type: cell-based, human; details: after 9-10 passages; FIG. 11b
Protocol: as §1, §2
Example 3b: Prostate cancer cells were also cultured as described above with either human NME1 dimers, bacterial NME1 dimers, NME7-AB, or 2i inhibitors. […] Thus, the RT-PCR measurements of the cancer stem cell markers are lower than that of the T47D cells, which could be explained by it being the measure of transformed cells and non-transformed cells. In the case of breast cancer cells, we were able to isolate the fully transformed cancer stem cells by collecting the floating cells, but were not able to do so here. DU145 MUC1-positive prostate cancer cells were cultured in RPMI media as a control and in minimal media to which was added recombinant human NME1/NM23 dimers, bacterial HSP593 dimers, or human NME7-AB. […] There was about a 2-8-fold increase in OCT4, MUC1 and CDH1/E-cadherin. However, after serial passaging under these same culture conditions, the increases in expression of cancer stem cell markers became more pronounced. We reasoned that serial passaging allowed more time for cells to transform since we could not rapidly collect floating cells.

NME1 dimers: recombinant human NM23, also called NME1, dimers that bear the 5120G mutation that stabilizes dimers
expression of CDH1 (E-cadherin), MUC1 and NANOG ([1]; FIG. 7): increases | expression of CXCR4, SOX2 and OCT4 ([1]; FIG. 7): dramatic increases | expression of stem cell markers KLF2 and KLF4 ([1]; FIG. 7): modest increases | expression of MBD3, CHD4, BRD4 and JMJD6 ([1]; cancer cells cultured in agent, FIG. 13, FIG. 14): naturally suppressed | expression of stem cell marker genes OCT4 and NANOG ([2]; FIG. 15): greatly increased expression | expression of BRD4, JMJD6, MBD3 and CHD4 ([2]; FIG. 16): decreased expression | expression of stem cell markers SOX2, OCT4 and NANOG ([3]; after passage in agent, FIG. 12a): modest increases | expression of cancer stem cell or stem cell markers ([3]; serial passaging in the media, FIG. 12b): decreased | support of human stem cell growth [4]: fully supported human stem cell growth | expression of NANOG and OCT4 [5]: significant increases | increase in the expression of CDH1/E-cadherin [5]: 6 fold
